Measured values: the supplement of paper PMC10307832

How the values were obtained:
Test in all cases: relative viability (nuclei count vs DMSO), 5 days (fraction); higher = more cells survive
[1] = compound: CC1=NC=CC(=C1)C2=CC=C(C=C2)CC(=O)NC3=CC=C(C=C3)C4=CN=CC=C4 [Wnt-C59] + Cc1nc(NC(=O)N2CCC[C@H]2C(N)=O)sc1-c1ccnc(C(C)(C)C(F)(F)F)c1 [Alpelisib] (partner 2 µM)
Method in brief: (§1)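 Lung cancer cell lines in 1536-well plates got either a single drug or a fixed anchor-drug dose together with five library-drug doses (not always all listed) in √10 steps, by pin tool, on the day after seeding. Nuclei were counted after 5 days, and relative viability is the treated-to-vehicle ratio of nuclei counts. Values are medians of duplicate plates.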

[2] = compound: CC1=NC=CC(=C1)C2=CC=C(C=C2)CC(=O)NC3=CC=C(C=C3)C4=CN=CC=C4 [Wnt-C59] + CS(=O)(=O)CCNCc1ccc(-c2ccc3ncnc(Nc4ccc(OCc5cccc(F)c5)c(Cl)c4)c3c2)o1 [Lapatinib] (partner 2 µM)
Method in brief: as §1

[3] = compound: CC1=NC=CC(=C1)C2=CC=C(C=C2)CC(=O)NC3=CC=C(C=C3)C4=CN=CC=C4 [Wnt-C59] + O=C(CCCCCCC(=O)Nc1ccccc1)NO [Vorinostat] (partner 1 µM)
Method in brief: as §1

[4] = compound: CS(=O)(=O)CCNCc1ccc(-c2ccc3ncnc(Nc4ccc(OCc5cccc(F)c5)c(Cl)c4)c3c2)o1 [Lapatinib] + CC(C)C[C@H](NC(=O)[C@H](Cc1ccccc1)NC(=O)c1cnccn1)B(O)O [Bortezomib] (partner 0.002 µM)
Method in brief: as §1

## UMC-11
[1]; first compound 0.001 µM
  relative viability: 1.08
[1]; first compound 0.01 µM
  relative viability: 0.978
[1]; first compound 0.03162 µM
  relative viability: 1.07
[1]; first compound 0.1 µM
  relative viability: 1.01
[2]; first compound 0.001 µM
  relative viability: 0.911
[2]; first compound 0.01 µM
  relative viability: 0.851
[2]; first compound 0.03162 µM
  relative viability: 1.03
[2]; first compound 0.1 µM
  relative viability: 0.749
[3]; first compound 0.001 µM
  relative viability: 0.445
[3]; first compound 0.01 µM
  relative viability: 0.418
[3]; first compound 0.03162 µM
  relative viability: 0.339
[3]; first compound 0.1 µM
  relative viability: 0.422
[4]; first compound 0.02 µM
  relative viability: 0.838
[4]; first compound 0.06325 µM
  relative viability: 0.705
[4]; first compound 0.2 µM
  relative viability: 0.852
[4]; first compound 0.6325 µM
  relative viability: 0.798
[4]; first compound 2 µM
  relative viability: 0.665
